Numbering of substitutions follows the chain as printed. Like-named read-outs stand apart in the source and are kept apart here.
What was measured:
22Rv1 cells = assay: Cell viability assay (CellTiterGlo, 6 days) 22Rv1; format: cell-based; settings: Homo sapiens, 22Rv1, 144 h, read-out: 22RV1
Experimental: (§1) Cell viability assay: LNCap, 22Rv1, and T47D cells were seeded at a density of 1500-2000 cells/well in 96 well plates, and a ‘T0’ (timepoint 0) was included along with the assay plate. The plates were then incubated at 37° C., 5% CO2 in a cell culture incubator overnight. On the next day, the ‘T0’ plate was assayed using CellTiterGlo (Promega, Inc) according to the manufacturer's instructions. The appropriate compounds were diluted in DMSO and added to the assay plate (final DMSO concentration of 0.2%) on the next day. The assay plates were incubated for 6 days at 37° C., 5% CO2. After the incubation period, the plates were assayed using CellTiterGlo (Promega, Inc) according to the manufacturer's instructions and luminescence was read on the EnVision plate reader. Inhibition the tested compounds was determined by the following formula: Inhibition rate (%)=(1−(RLU compound−RLU day0)/(RLU control−RLU day0))*100%. GraphPadPrism was used to analyze the data and determine absolute IC50 values.

Human recombinant PARP2 = Human recombinant PARP2 (Homo sapiens, UniProt Q9UGN5); assay: RBC HotSpot PARP2 assay (radioisotope-based filter binding); format: biochemical
Human recombinant PARP2, sequence (Q9UGN5 whole entry): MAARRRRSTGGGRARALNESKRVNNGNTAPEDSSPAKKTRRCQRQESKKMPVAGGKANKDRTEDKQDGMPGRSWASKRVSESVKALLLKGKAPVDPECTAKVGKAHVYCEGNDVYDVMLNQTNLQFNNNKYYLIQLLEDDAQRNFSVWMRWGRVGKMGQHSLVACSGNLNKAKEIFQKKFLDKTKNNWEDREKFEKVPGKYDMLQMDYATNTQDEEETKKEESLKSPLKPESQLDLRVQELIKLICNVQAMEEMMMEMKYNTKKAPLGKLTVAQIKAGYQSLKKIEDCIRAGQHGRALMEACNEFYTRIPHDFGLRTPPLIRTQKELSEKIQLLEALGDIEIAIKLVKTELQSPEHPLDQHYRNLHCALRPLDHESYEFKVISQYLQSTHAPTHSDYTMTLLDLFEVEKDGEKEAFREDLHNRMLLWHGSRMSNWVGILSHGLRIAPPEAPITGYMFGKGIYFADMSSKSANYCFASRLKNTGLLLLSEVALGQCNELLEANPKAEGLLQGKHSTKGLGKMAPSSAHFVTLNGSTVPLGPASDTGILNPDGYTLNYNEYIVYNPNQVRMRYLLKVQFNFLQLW
Experimental: (§2) The following methods are for evaluating the in vitro biology properties of the test articles. • a. RBC HotSpot Poly(ADP-ribose) Polymerases 1 (PARP1) and Poly(ADP-ribose) Polymerases 2 (PARP2) Assays: The assay was conducted at Reaction Biology Corporation (RBC; Malvern, PA). The assay principle is radioisotope-based filter binding assay where incorporation of radioisotope-labeled NAD^+ into the substrate captured on filter is detected after washout free NAD^+. Data were analyzed using Excel and GraphPad Prism software for IC50 curve fits. Each assay was conducted with PJ34 as a positive control. PARP1 assay: Human recombinant PARP1 at a final concentration of 2.5 nM was combined with histone H4 (20 μM) and test articles at various concentrations in reaction buffer (50 mM Tris-HCL, pH 8.0, 50 mM NaCl, 10 mM MgCl2, 1 mM DTT, 1% DMSO, and 20 μg/mL activated DNA). The solution was inoculated for 20 min at room temperature and the reaction initiated by adding [adenylate-^32P]-Nicotinamide Adenine Dinucleotide, ^32P-NAD^+ at a final concentration of 10 μM. After incubation for 2 hrs at room temperature, the reaction mixture was filtered and washed with 0.75% phosphoric acid for radioactivity detection. • ii. PARP2 assay: Human recombinant PARP2 at a final concentration of 2.5 nM was combined with histone H3 (20 μM) and test articles at various concentrations in reaction buffer (50 mM Tris-HCL, pH 8.0, 50 mM NaCl, 10 mM MgCl2, 1 mM DTT, 1% DMSO, and 20 μg/mL activated DNA). The solution was inoculated for 20 min at room temperature and the reaction was initiated by adding [adenylate-^32P]-Nicotinamide Adenine Dinucleotide, ^32P-NAD^+ at a final concentration of 10 μM. After incubation for 2 hrs at room temperature, the reaction mixture was filtered and washed with 0.75% phosphoric acid for radioactivity detection. • b. AR binding assay: AR in LNCaP cytosol was used for determining the binding affinity of test articles and the reference compound—progesterone (Sigma, Cat: E2785, St. Louis, MO). IC50 s were determined using 8 concentrations/compound. Cytosol is plated at 200 μg/well (100 μL) into a 96-well conical polypropylene plate (Agilent, Cat: 5042-1385, Santa Clara, CA) and mixed with 3 μL of test compound. After adding 100 μL of ^3H-methyltrienolone (PerkinElmer, Cat: NET590250UC, San Jose, CA), the plate was sealed and shaken at 300 rpm at 4° C. for 24 hours. Post incubation, 100 μL of radioligand adsorption buffer containing 10 mM Tris-HCl, pH 7.4; 1.5 mM EDTA; 1 mM DTT; 0.25% charcoal; 0.0025% dextran was added to individual wells. Plate was shaken for 15 min at 4° C. followed by centrifugation at 3000 rpm for 30 min at 4° C. 150 μL of supernatant is transferred into scint-tube (PerkinElmer, Cat: 6000192) and mixed with 2 mL of Ultima Gold Cocktail (PerkinElmer, Cat: 6013329). Radioactivity is counted using a TriCarb 2910 TR scintillation counter (PerkinElmer). Inhibition of the radioactivity by test articles was calculated using the equation below: % Inhibition=(1−(Assay well−Average_LC)/(Average_HC−Average_LC))×100%. • IC50 values (Table 6) were calculated and graphed using the model “log(inhibitor) vs. response—Variable slope” included in GraphPad Prism 5 (San Diego, CA). The Ki values were further calculated using the equation below where [L] is the radioligand concentration (1 nM) used in this study. Kd value was 0.332 nM. Ki=IC50/(1+[L]/Kd) • c. AR transactivation: Human AR cloned into a CMV vector backbone is used for the transactivation study. HEK-293 cells are plated at 80,000 cells per well of a 24 well plate in DME+5% csFBS. Twenty four hours later, the cells are transfected using Lipofectamine (Invitrogen, Carlsbad, CA) with 0.25 μg GRE-LUC, 0.01 μg CMV-LUC (renilla luciferase) and 25 ng of the AR in OPTIMEM medium. The cells are treated 24 hrs after transfection with various ligands (10^−12 to 10^−5 M final concentrations) and luciferase assay performed 48 hours after transfection. […]

Human recombinant PARP1 = Human recombinant PARP1 (Homo sapiens, UniProt P09874); assay: RBC HotSpot PARP1 assay (radioisotope-based filter binding); format: biochemical
Human recombinant PARP1, sequence (P09874 whole entry): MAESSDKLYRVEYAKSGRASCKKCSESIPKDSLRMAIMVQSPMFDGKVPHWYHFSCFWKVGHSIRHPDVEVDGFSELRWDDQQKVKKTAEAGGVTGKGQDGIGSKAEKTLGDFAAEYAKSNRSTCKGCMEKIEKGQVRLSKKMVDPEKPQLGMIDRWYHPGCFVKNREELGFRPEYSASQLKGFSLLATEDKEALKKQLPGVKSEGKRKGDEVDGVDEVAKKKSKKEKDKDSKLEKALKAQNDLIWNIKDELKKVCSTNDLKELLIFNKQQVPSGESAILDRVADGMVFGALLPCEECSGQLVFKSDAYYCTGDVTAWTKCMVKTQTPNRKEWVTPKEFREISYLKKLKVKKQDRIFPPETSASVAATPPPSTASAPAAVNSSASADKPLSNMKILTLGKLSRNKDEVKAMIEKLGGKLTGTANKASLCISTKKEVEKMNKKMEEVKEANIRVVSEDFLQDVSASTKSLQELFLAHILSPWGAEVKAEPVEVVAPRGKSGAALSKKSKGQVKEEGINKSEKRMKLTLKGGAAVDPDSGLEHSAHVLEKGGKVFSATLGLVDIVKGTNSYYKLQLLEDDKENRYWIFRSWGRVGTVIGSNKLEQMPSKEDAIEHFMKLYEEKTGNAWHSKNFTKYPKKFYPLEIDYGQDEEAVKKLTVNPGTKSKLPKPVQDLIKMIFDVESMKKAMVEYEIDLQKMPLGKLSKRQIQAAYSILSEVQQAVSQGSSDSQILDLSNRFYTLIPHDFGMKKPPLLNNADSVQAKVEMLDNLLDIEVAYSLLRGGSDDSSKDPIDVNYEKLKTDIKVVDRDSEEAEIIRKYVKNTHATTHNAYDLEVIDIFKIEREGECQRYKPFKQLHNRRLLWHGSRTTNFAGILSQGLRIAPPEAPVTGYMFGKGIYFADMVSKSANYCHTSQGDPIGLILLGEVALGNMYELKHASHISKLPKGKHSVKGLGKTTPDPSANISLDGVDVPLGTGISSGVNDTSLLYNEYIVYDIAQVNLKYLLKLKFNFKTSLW
Experimental: as §2

LNCap cells = assay: Cell viability assay (CellTiterGlo, 6 days) LNCap; format: cell-based; settings: Homo sapiens, 144 h
Experimental: as §1

[1] = biological target: T1, full-length androgen receptor (Homo sapiens, UniProt P10275); assay: AR antagonism assay (HEK293, testosterone 1 nM, Steady-glo); format: cell-based
T1 construct: HEK293 cells stably expressing the full-length androgen receptor; expressed in transfected cells
T1 sequence (P10275 1-920): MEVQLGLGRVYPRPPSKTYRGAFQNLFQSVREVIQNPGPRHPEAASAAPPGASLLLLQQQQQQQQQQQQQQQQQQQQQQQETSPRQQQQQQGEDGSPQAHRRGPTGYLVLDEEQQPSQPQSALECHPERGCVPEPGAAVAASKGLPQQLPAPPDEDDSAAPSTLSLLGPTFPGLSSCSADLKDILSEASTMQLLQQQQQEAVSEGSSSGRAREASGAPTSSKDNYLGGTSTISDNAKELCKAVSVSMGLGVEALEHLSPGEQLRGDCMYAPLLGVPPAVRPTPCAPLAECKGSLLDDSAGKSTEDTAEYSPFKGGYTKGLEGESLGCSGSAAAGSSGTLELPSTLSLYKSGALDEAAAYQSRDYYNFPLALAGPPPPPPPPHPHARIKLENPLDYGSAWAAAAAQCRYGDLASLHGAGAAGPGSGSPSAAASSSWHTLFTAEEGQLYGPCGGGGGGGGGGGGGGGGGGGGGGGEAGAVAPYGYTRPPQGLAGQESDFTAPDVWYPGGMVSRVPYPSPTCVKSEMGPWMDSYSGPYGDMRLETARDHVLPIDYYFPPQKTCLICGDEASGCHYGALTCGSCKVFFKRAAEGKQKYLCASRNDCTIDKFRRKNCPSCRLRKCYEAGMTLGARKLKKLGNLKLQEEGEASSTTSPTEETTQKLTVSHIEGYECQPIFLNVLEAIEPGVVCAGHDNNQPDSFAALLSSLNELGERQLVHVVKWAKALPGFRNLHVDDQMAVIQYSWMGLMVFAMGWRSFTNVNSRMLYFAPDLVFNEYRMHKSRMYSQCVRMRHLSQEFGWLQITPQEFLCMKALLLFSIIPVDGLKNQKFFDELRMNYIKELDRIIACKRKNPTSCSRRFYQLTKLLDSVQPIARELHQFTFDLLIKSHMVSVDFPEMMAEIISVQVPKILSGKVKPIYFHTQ
Experimental: AR antagonism assay: To evaluate AR antagonist activity, test compound was added to the assay plate (top dose 10 μM, 3 fold serial dilution, 10 point dose response). HEK293 cells stably expressing the full-length androgen receptor were seeded at a density of 20000 cells/well in the assay plate. The assay plate was then incubated at room temperature for 10 minutes and at 37° C., 5% CO2 for 20 minutes. Testosterone was added to the assay plate at 1 nM final concentration and the assay plate was incubated at 37° C., 5% CO2 for 20 h. After the incubation period, Steady-glo was added to the assay plate and mixed at room temperature for 20 minutes on an orbital shaker, before reading out on the EnVision plate reader.

[2] = biological target: T2, AR, cytosol from LnCaP cells (Homo sapiens, UniProt P10275, T878A); assay: AR binding assay, 3H-R1881 (Biological Example 2)
T2 construct: AR in LNCaP cytosol was used; endogenous in cells; host or cells: LNCaP cells (cytosol)
T2 sequence (P10275 1-920 T878A): T1 sequence (P10275 1-920) with T878A
Experimental: AR binding assay: To assess AR binding, test compound (top dose […], 4 fold serial dilution, 8 point dose response) and control (progesterone) were transferred to the assay plate. Cytosol from LnCaP cells was added to the plate, followed by addition of radiolabeled ^3H-R1881 at a final concentration of 1 nM. The plate was sealed, and the reaction was incubated at 300 rpm at 4° C. for 24 hrs. Radioligand absorption buffer (10 mM Tris-HCl, pH 7.4; 1.5 mM EDTA; 1 mM DTT; 0.25% charcoal; 0.0025% dextran) was then added to the plate, mixed, and incubated at 4° C. for 15 minutes. The plate was then centrifuged at 3000 rpm for 30 minutes at 4° C. The supernatant was transferred to the scint-tube and Tri-carb was used for scintillation counting. The data was analyzed using GraphPadPrism v5.0 and binding IC50 was determined as the concentration where 50% inhibition of radioligand binding was observed.

C[C@]12C[C@H](CCCCCC(=O)N3CCN(C(=O)c4cc(Cc5n[nH]c(=O)c6ccccc56)ccc4F)CC3)C3=C4CCC(=O)C=C4CC[C@H]3[C@@H]1CCC2=O [Compound 1370, (8S,11S,13S,14S)-11-(6-(4-(2-fluoro-5-((4-oxo-3,4-dihydrophthalazin-1-yl)methyl)benzoyl)piperazin-1-yl)-6-oxohexyl)-13-methyl-7,8,11,12,13,14,15,16-octahydro-1H-cyclopenta[a]phenanthrene-3,17(2H,6H)-dione]
IC50 (22Rv1 cells): 100 to 1000 nM
IC50 (Human recombinant PARP2): < 1 nM
IC50 (Human recombinant PARP1): < 1 nM
IC50 (LNCap cells; Table 7): 100 to 1000 nM

C[C@]12CC[C@H]3[C@@H](CCC4=CC(=O)CC[C@@]43C)[C@@H]1CC[C@@H]2C(=O)COCCCCCC(=O)NCCOCCOCC(=O)N1CCN(C(=O)c2cc(Cc3n[nH]c(=O)c4ccccc34)ccc2F)CC1 [Compound 1392]
IC50 (Human recombinant PARP2; Table 9, read-out: PARP2): < 1 nM
IC50 (Human recombinant PARP1; Table 9, read-out: PARP1): 1 to 10 nM
IC50 (LNCap cells; Table 8): 1000 to 10000 nM

C[C@@H]1C[C@@]2(C)[C@@H](CC[C@@H]3[C@@H]2CC[C@]2(C)[C@@H](OCCCCCC(=O)N4CCN(C(=O)c5cc(Cc6n[nH]c(=O)c7ccccc67)ccc5F)CC4)CC[C@@H]32)CC1=O [Compound 1402, 4-(4-fluoro-3-(4-(6-((2R,5S,8R,9S,10S,13S,14S,17S)-2,10,13-trimethyl-3-oxohexadecahydro-1H-cyclopenta[a]phenanthren-17-yloxy)hexanoyl)piperazine-1-carbonyl)benzyl)phthalazin-1(2H)-one]
IC50 (Human recombinant PARP2; Table 9, read-out: PARP2): 1 to 10 nM
IC50 (Human recombinant PARP1; Table 9, read-out: PARP1): 10 to 100 nM

C[C@]12C=CC(=O)C[C@@H]1CC[C@@H]1[C@@H]2CC[C@]2(C)[C@@H](OCCCCCC(=O)N3CCN(C(=O)c4cc(Cc5n[nH]c(=O)c6ccccc56)ccc4F)CC3)CC[C@@H]12 [Compound 1410, 4-(3-(4-(6-((5S,8R,9S,10R,13S,14S,17S)-10,13-dimethyl-3-oxo-4,5,6,7,8,9, 10,11,12,13,14,15,16,17-tetradecahydro-3H-cyclopenta[a]phenanthren-17-yloxy)hexanoyl)piperazine-1-carbonyl)-4-fluorobenzyl)phthalazin-1(2H)-one]
IC50 [1]: 100 to 1000 nM
IC50 (22Rv1 cells; Table 7, cell viability, 6 days): 100 to 1000 nM
IC50 (LNCap cells; Table 7): 100 to 1000 nM
IC50 [2]: 10 to 100 nM
